Source: patent US11716994B2, “Combinations of Yersinia entomophaga and pesticides or other substances” (priority 2017, dated 2023)
Where “and” joins values, the source holds several entries; their conditions need not be identical. Identical values can stand only once. Like-named read-outs stand apart in the source and are kept apart here.

What was measured:
corn earworm = experiment: Leaf disk mortality assay, Y. entomophaga cells with chemical insecticides; assay type: in vivo; design: mortality: dose or concentration left out as unconfirmed; details: for % Mort. Chem.: Thiodicarb 140 mg/L
Procedure: (§1) 50 μl suspensions of either acetone (controls and Y. entomophaga alone treatments) or of thiodicarb (Sigma 34375) at a concentration of 140 mg/L in acetone were then dropped onto each cabbage disk. These were set to dry for 1 hr. After the disks had dried, one 2nd instar corn earworm was added to each disk. A total of 12 insects were evaluated for each treatment.
as §1, with “chlorantraniliprole” for “thiodicarb”, “32510)” for “34375)”, “18” for “140”, “24” for “12”

cabbage looper [1] = system: cabbage looper
tobacco budworm [2] = system: tobacco budworm
cabbage looper [3] = experiment: whole plant or invertebrate; details: Trichoplusia ni, foliar
tobacco budworm [4] = experiment: whole plant or invertebrate; details: Heliothis virescens, foliar
Yersinia entomophaga = experiment: CFU counts after exposure of Yersinia entomophaga to insecticides; assay type: cell-based; details: 1 hour contact
Excerpt: To test combinations of Yersinia entomophaga and pesticides for their ability to produce a pesticidal effect, or an effect on plant growth or yield, we first put various insecticides in contact with Yersinia to identify insecticides that had minimal toxicity to Yersinia entomophaga. The logic was that, if Yersinia entomophaga is to function well in combination with a chemical insecticide, the chemical insecticide would ideally have low or no effect on the ability of Yersinia entomophaga to survive, grow and/or to function.
To perform this study, we selected amounts of various insecticides based on the percent of the specific insecticide in the insecticide composition obtained from a manufacturer. We also considered the application rate of the particular insecticide, as recommended by the manufacturer. […] Generally, the 1× amount was considered possibly the lowest amount of insecticide that may be considered as an effective amount for use in the combinations disclosed herein. For each insecticide, we also used a higher amount of insecticide (generally a 5× or 10× amount).
The 1× and 5×/10× amounts of each insecticide were added to tubes along with 1 ml of ethyl acetate. The tubes were mixed until the insecticides dissolved. The tubes were left open in a fume hood overnight to allow the ethyl acetate to evaporate. The insecticide remained in the tubes, as a solid coat on the interior surface of the tubes.
A growing culture of Yersinia entomophaga, grown in LB medium, was diluted and 1 ml of the diluted culture was added to each tube containing the dried insecticide. The tubes were mixed and then left on the bench top for 1 hour. Then, 100 μl from each tube was plated onto LB plates in triplicate in CFU assays. Plates were incubated at 25° C. for 48 hours and colonies were counted.

diamondback moth [5] = experiment: whole plant or invertebrate; details: spinosad […]
Excerpt: (§2) These were set to dry for 1 hr.
as §2
These were set to dry for 1 hr. Cabbage disks were then dipped in either 1% Luria broth (LB) media solution (controls and thiacloprid alone treatments) or in 1% cell free filtrate from a culture Y. entomophaga isolate O24G3R (Y. entomophaga alone or in combination with thiacloprid treatments).

fall armyworm [6] = details: in vivo
Colorado potato beetle [7] = details: in vivo
diamondback moth [8] = details: in vivo
cabbage looper [9] = details: spinosad 7.5 mg/L
Procedure: (§3) To produce cell free filtrates, cultures of Yersinia entomophaga grown in LB medium were centrifuged at 11,448 (g) for 10 minutes. The supernatant was decanted from the centrifuged pellet and filtered through a 0.22 μm filter. Assays were performed to determine concentrations of Yen-TC (toxin complex) using ELISA, and chitinase by measuring chitinase activity on specific substrates. […] This was done to estimate relative potency of the cell free filtrates. Insects were first pre-screened with a range of dilutions of cell free filtrates to select a concentration that provided moderate activity. […] Based on these initial screens, undiluted cell free filtrate was used for cabbage looper, fall armyworm, black cutworm, and Colorado potato beetle. […] In each of the Examples below, this is expressed as 1%.
Cabbage leaf disks were dipped in either acetone (controls and Y. entomophaga alone treatments) or novaluron (Sigma 32419) at 1.0 mg/L in acetone. These were set to dry for 1 hr. […] After the cabbage disks had dried for 1 hr, a single 3rd instar cabbage looper was added to each individual cabbage disk. A total of 20 insects were evaluate for each treatment. Insects were observed daily and scored as live or dead.

Colorado potato beetle [10] = details: spinosad […]
Procedure: as §3
Tomato leaf disks were dipped in either acetone (controls and Y. entomophaga alone treatments) or thiacloprid (Sigma 37905) at 1 mg/L in acetone. These were set to dry for 1 hr. […] After the tomato disks had dried for 1 hr, a single 3rd instar Colorado potato beetle was added to each individual cabbage disk. A total of 20 insects were evaluate for each treatment. Insects were observed daily and scored as live or dead.

fall armyworm [11] = experiment: Leaf disk mortality assay, Y. entomophaga cells with chemical insecticides
diamondback moth [12] = experiment: as above; details: in vivo
Colorado potato beetle [13] = experiment: Tomato leaf disk mortality assay, Y. entomophaga cells with chemical insecticides
[14] = 24 h, read-out: % Mortality (1DAT)
[15] = 48 h, read-out: % Mortality (2DAT)
[16] = 3rd instar, spinosad 25 mg/L, isolate O24G3R 1×10^5 cfu/mL
[17] = 3rd instar, spinosad 25 mg/L, isolate O348UX 1×10^5 cfu/mL

Compound: CS/C(C)=N\OC(=O)N(C)SN(C)C(=O)O/N=C(\C)SC [Thiodicarb]
- LT50 (95% confidence intervals) in days (corn earworm; 2nd instar, thiodicarb 140 mg/mL, isolate O43NEW 1×10^7 cfu/mL): 2.02 (1.60-2.50) days
- mortality (corn earworm; Helicoverpa zea, foliar, 24 h, 2nd instar, thiodicarb, isolate O43NEW 1×10^7 cfu/mL, read-out: % Mortality (1DAT)): 0%
- % Mort. Chem. (corn earworm; corn earworm, 1 DAT): 0%
- % Mort. Chem. (corn earworm; corn earworm, 2 DAT): 33%
- LT50 Chem. (corn earworm; corn earworm, Thiodicarb alone 140 mg/L): 2.02 days
- LT50 Chem. (cabbage looper [1]; cabbage looper, Thiodicarb alone 140 mg/L): 1.40 days
- % Mort. Chem. (cabbage looper [1]; in vivo): 25%
- LT50 (95% confidence intervals) (cabbage looper [1]; in vivo): 1.40 days
- LT50 (95% confidence intervals) in days (tobacco budworm [2]; in vivo): 1.98 (1.57-2.45) days
- % Mort. Chem. (tobacco budworm [2]; tobacco budworm, Thiodicarb 140 mg/L, 1 DAT): 25%
- LT50 Chem. (tobacco budworm [2]; tobacco budworm, Thiodicarb alone 140 mg/L): 1.98 days
- mortality at 140 µg/mL (cabbage looper [3]; [14]): 25%
- mortality at 140 µg/mL (cabbage looper [3]; [15]): 50%
- mortality at 140 µg/mL (tobacco budworm [4]; [14]): 25%
- mortality at 140 µg/mL (tobacco budworm [4]; [15]): 50%

Compound: Spinosad
- Average CFU (Yersinia entomophaga; 0.2 mg insecticide): 523 CFU
- Average CFU (Yersinia entomophaga; 1.0 mg insecticide): 487 CFU
- LT50 (95% confidence intervals) (diamondback moth [5]; 2nd instar diamondback moth, O43NEW filtrate 1%, alone or combined): 8.16 days
- LT50 Chem. (diamondback moth [5]; Diamondback moth): 8.16 days
- % Mortality (3DAT) (fall armyworm [6]): 40%
- % Mortality (3DAT) (Colorado potato beetle [7]): 15%
- % Mortality (4DAT) (Colorado potato beetle [7]): 20%
- % Mortality (5DAT) (Colorado potato beetle [7]): 40%
- % Mortality (2DAT) (diamondback moth [8]): 0%
- % Mortality (3DAT) (diamondback moth [8]): 10%
- % Mortality (4DAT) (diamondback moth [8]): 15%
- % Mortality (7DAT) (diamondback moth [8]): 40%
- % Mortality (9DAT) (diamondback moth [8]): 39%
- % Mortality (11DAT) (diamondback moth [8]): 65%
- % Mortality (2DAT) (cabbage looper [9]; 3rd instar cabbage looper, O43NEW undiluted filtrate, alone or combined, 2 DAT, Abbott's corrected): 10%
- % Mortality (5DAT) (cabbage looper [9]; 3rd instar cabbage looper, O43NEW undiluted filtrate, alone or combined, 5 DAT, Abbott's corrected): 25%
- % Mortality (6DAT) (cabbage looper [9]; 3rd instar cabbage looper, O43NEW undiluted filtrate, alone or combined, 6 DAT, Abbott's corrected): 50%
- % Mortality (8DAT) (cabbage looper [9]; 3rd instar cabbage looper, O43NEW undiluted filtrate, alone or combined, 8 DAT, Abbott's corrected): 55%
- % Mortality (9DAT) (cabbage looper [9]; 3rd instar cabbage looper, O43NEW undiluted filtrate, alone or combined, 9 DAT, Abbott's corrected): 55%
- LT50 Chem. (cabbage looper [9]; Cabbage Looper): 7.01 days
- % Mort. Chem. (cabbage looper [9]; Cabbage Looper, 5 DAT): 25%
- LT50 (95% confidence intervals) (Colorado potato beetle [10]; 3rd instar Colorado potato beetle, O43NEW undiluted filtrate, alone or combined): 78.3 days
- LT50 Chem. (Colorado potato beetle [10]; Colorado potato beetle): 78.30 days
- % Mortality (3DAT) (fall armyworm [11]; [16]): 80%
- LT50 (95% confidence intervals) in days (fall armyworm [11]; [16]): 2.43 (2.08-2.84) days
- % Mortality (3DAT) (fall armyworm [11]; [17]): 80%
- LT50 (95% confidence intervals) in days (fall armyworm [11]; [17]): 2.43 (2.08-2.84) days
- % Mort. Chem. (fall armyworm [11]; fall armyworm, Spinosad 25 mg/L, 3 DAT (row with 024G3R)): 80%
- % Mort. Chem. (fall armyworm [11]; fall armyworm, Spinosad 25 mg/L, 3 DAT (row with O348UX)): 80%
- LT50 Chem. (fall armyworm [11]; fall armyworm, Spinosad alone 25 mg/L): 4.09 days and 2.43 days
- % Mort. Chem. (fall armyworm [11]; in vivo): 40%
- LT50 (95% confidence intervals) in days (fall armyworm [11]; in vivo): 4.09 (3.67-4.55) days
- LT50 (95% confidence intervals) (diamondback moth [12]): 8.16 days
- LT50 Chem. (diamondback moth [12]): 8.16 days
- LT50 Chem. (Colorado potato beetle [13]; Colorado potato beetle, Spinosad alone […]): 6.01 days
- LT50 (95% confidence intervals) in days (Colorado potato beetle [13]; in vivo): 6.01 (4.93-7.28) days
